Measured values: ChEMBL document CHEMBL1201862, “PubChem BioAssay data set” (2004)
Activity calls are given as the source filed them.

Assays:
[1] = viability loss in HepG2 hepatoma cells – cell-based, ATP luminescence, cherry-pick, activator set 2, cytotoxicity control, dose response (AID 1053143); assay type: functional
[2] = inhibitors acting on PAX2 in cells – cell-based, plate reader, dry powder samples, selectivity assay for PAX8 inhibitor project, dose response (AID 743048); assay type: functional;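 note: HEK293 cells carrying a WT1 promoter luciferase reporter driven by expressed Pax2; potency is for inhibition of Pax2 driven reporter signal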
[3] = OVCAR-3 cell viability loss – plate reader, dry powder samples, PAX8 inhibitor project, dose response (AID 743044); assay type: functional, cell-based
[4] = IGROV1 cell killing – plate reader, dry powder samples, PAX8 inhibitor project, dose response (AID 743043); assay type: functional, cell-based; details: IGROV-1
[5] = COV434 cell viability loss – plate reader, dry powder, SA7, cytotoxicity control for PAX8 inhibitor project, dose response (AID 743145); assay type: functional, cell-based
[6] = OV-90 cell viability loss – plate reader, dry powder, SA8, PAX8 inhibitor project, dose response (AID 743149); assay type: functional, cell-based
[7] = PAX8-dependent cell viability loss – plate reader, dry powder, dose response (AID 743049); assay type: functional, cell-based
[8] = molecular target: Fructose-bisphosphate aldolase (Mycobacterium tuberculosis, UniProt P9WQA3); assay: Fluorescence-based biochemical high throughput dose response assay for inhibitors of the fructose-bisphosphate aldolase (FBA) of M. tuberculosis.; assay type: functional
[9] = molecular target: 1-phosphatidylinositol 4,5-bisphosphate phosphodiesterase gamma-1 (Homo sapiens, UniProt P19174); assay: Counterscreen for inhibitors of phospholipase C isozymes (PLC-B3): Fluorescence-based biochemical high throughput dose response assay to identify inhibitors of phospholipase C isozymes (PLC-gamma1).
[10] = molecular target: 1-phosphatidylinositol 4,5-bisphosphate phosphodiesterase beta-3 (Homo sapiens, UniProt Q01970); assay: Fluorescence-based biochemical high throughput dose response assay to identify inhibitors of phospholipase C isozymes (PLC-B3).
Paired box protein Pax-8 = Paired box protein Pax-8 (Homo sapiens, UniProt Q06710); assay: PAX8 transcriptional activity inhibition in RMG-I – RMG-I cells, luciferase, cherry-pick, dose response (AID 687027); assay type: functional, cell-based;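 note: luciferase reporter driven by Pax8 target thyroperoxidase promoter measured by SteadyGlo luminescence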
[11] = CMV-driven luciferase expression suppression in HEK293 – cell-based, luminescence, dry powder, counter-screen for Pax8 inhibitor project, dose response (AID 743020); assay type: functional
[12] = A549 cell cytotoxicity, dose response, cytotoxicity control, plate reader, cherry-pick, antagonist series (AID 743412); assay type: functional, cell-based
[13] = inhibition of bursicon-driven LGR2 cAMP signaling – cell-based, HEK293, CRE-luciferase reporter, cherry pick, dose response (AID 743342); assay type: functional
[14] = blockade of melanocortin 4 receptor signaling – cell-based, plate reader, cherry pick, counter-screen for LGR2 antagonist project, dose response (AID 743444); assay type: functional;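 note: transfected HEK 293 cells stimulated with alpha-MSH peptide; potency of inhibitors of the alpha-MSH evoked signal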
[15] = Late stage assay provider results from the probe development effort to identify selective inhibitors of heat shock protein 90 (HSP90): Absorbance-based cell proliferation assay in SKBR3 cells.; assay type: functional; details: SK-BR-3
[16] = Late stage assay provider results from the probe development effort to identify selective inhibitors of heat shock protein 90 (HSP90): Absorbance-based cell proliferation assay in MCF7 cells.; assay type: functional
[17] = Late stage assay provider results from the probe development effort to identify inhibitors of the Plasmodium falciparum M18 Aspartyl Aminopeptidase (M18AAP): radiolabel-based cell-based dose response assay to identify compounds that inhibit P. falciparum growth in RBCs, Set 2..; assay type: functional
Caspase-6 = molecular target: T1, Caspase-6 (Homo sapiens, UniProt P55212); assay: inhibition of CASP6 peptide cleavage – biochemical, VEID-R110 fluorescence, dry powder retest, dose response (AID 743332)
T1 sequence (P55212 whole entry): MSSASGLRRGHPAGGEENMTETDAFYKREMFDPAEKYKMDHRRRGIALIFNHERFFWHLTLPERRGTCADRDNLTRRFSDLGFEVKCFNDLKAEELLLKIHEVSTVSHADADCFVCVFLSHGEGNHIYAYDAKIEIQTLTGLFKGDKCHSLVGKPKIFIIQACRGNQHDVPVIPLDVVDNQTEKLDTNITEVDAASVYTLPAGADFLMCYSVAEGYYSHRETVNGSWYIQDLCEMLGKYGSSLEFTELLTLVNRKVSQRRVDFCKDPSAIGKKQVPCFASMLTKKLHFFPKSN

Chain of 1-phosphatidylinositol 4,5-bisphosphate phosphodiesterase gamma-1 (P19174 whole entry): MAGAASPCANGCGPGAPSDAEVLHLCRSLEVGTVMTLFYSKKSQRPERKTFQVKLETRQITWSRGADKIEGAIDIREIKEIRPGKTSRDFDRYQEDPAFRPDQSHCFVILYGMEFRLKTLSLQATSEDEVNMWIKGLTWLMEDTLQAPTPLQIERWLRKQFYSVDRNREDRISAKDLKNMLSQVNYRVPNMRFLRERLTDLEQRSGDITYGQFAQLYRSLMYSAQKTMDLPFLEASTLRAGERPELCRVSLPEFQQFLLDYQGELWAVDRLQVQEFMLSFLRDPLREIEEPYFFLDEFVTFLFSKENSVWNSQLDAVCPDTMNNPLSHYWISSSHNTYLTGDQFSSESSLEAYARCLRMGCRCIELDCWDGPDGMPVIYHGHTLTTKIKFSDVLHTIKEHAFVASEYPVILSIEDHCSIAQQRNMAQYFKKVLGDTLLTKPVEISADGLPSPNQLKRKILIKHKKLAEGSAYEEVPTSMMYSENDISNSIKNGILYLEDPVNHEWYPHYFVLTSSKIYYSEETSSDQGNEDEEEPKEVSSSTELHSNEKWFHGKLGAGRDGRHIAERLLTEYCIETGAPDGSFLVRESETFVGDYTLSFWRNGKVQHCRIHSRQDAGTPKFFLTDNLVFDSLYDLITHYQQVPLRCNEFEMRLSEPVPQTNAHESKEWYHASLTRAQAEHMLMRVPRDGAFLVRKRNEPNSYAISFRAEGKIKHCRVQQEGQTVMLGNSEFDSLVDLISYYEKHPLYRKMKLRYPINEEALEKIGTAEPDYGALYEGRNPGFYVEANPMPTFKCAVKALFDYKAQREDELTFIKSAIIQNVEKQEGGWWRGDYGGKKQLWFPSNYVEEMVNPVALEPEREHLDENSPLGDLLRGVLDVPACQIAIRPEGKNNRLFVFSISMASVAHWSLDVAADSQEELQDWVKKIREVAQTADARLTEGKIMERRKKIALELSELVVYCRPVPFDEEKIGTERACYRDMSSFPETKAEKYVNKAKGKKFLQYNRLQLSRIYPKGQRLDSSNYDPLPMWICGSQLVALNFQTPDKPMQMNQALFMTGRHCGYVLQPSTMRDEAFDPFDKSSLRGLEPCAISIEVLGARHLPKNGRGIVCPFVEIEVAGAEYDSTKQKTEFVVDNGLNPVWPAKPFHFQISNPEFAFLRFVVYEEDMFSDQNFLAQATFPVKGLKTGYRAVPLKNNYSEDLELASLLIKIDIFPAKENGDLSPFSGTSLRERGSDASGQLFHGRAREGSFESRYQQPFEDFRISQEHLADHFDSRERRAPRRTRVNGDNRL
Chain of Paired box protein Pax-8 (Q06710 whole entry): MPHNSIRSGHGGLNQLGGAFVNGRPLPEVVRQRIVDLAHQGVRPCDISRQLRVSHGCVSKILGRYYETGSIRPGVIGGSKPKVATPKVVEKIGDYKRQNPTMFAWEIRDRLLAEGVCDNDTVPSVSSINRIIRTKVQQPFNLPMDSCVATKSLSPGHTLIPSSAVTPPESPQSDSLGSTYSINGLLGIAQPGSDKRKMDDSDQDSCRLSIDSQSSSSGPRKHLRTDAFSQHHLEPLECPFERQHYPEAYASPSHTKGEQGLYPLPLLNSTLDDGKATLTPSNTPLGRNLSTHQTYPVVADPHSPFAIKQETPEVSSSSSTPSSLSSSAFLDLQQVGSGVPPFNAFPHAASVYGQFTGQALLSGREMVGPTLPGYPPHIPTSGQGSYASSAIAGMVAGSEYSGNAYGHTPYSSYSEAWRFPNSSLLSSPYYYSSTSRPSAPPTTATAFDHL
Chain of 1-phosphatidylinositol 4,5-bisphosphate phosphodiesterase beta-3 (Q01970 whole entry): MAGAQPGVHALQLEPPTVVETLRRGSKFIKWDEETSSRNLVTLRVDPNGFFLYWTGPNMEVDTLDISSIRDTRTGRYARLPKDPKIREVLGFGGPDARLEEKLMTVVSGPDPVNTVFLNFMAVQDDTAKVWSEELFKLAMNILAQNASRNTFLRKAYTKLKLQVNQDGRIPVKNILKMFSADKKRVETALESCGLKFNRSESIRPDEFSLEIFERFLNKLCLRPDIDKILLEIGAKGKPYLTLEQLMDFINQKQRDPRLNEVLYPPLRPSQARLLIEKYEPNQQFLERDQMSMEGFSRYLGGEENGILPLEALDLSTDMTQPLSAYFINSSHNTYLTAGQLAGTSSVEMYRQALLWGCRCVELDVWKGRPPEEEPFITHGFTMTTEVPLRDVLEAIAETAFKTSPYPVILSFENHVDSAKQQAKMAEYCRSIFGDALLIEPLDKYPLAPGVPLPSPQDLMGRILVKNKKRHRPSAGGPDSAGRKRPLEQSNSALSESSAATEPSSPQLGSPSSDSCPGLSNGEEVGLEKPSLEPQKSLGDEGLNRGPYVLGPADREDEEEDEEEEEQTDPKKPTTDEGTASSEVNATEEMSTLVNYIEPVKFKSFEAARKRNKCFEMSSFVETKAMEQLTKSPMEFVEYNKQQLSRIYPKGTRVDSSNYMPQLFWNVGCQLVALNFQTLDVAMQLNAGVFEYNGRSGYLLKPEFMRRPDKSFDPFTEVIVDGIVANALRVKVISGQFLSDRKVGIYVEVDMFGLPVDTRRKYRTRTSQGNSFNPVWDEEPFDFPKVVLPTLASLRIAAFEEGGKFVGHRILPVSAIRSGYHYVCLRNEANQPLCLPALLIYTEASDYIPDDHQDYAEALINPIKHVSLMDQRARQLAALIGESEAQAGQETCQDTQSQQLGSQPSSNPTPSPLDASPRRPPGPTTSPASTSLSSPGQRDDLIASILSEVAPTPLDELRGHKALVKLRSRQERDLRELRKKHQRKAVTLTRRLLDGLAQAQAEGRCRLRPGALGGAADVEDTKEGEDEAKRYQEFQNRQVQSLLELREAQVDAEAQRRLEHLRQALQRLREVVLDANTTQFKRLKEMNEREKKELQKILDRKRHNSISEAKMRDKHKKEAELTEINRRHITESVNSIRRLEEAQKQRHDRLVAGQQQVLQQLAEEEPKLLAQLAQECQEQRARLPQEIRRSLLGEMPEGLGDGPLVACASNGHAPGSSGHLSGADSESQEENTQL
Chain of Fructose-bisphosphate aldolase (P9WQA3 whole entry): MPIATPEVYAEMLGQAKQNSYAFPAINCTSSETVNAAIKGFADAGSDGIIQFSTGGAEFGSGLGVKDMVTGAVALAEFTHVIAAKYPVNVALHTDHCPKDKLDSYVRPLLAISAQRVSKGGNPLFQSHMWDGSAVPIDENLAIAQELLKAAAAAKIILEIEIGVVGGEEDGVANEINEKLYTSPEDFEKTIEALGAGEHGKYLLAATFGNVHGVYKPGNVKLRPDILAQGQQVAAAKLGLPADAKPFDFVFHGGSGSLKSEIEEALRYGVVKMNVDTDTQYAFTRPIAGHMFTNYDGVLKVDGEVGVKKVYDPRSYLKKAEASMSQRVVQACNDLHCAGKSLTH

For Cc1cc(NC(=O)c2ccco2)sc1C, the AC50 [1] was 26 µM (active).
In the case of CN(C)CCCN(C(=O)CCOc1ccccc1)c1nc2c(F)cccc2s1, the AC50 [2] is reported as > 100 µM (inactive), the AC50 [3] is reported as 44.9 µM (active) and the AC50 [4] is reported as 44.1 µM (active). For the same molecule, the AC50 [5] was 22.8 µM (active), the AC50 [6] was 13.1 µM (active) and the AC50 [7] was 10.8 µM (active).
With CCOC(=O)N1CCc2cc(OC)c(OC)c3c2c1cc1cc(OC)c(OC)cc13 the IC50 [8] was 2.7 µM (active).
For ONC(=Nc1ccc(Cl)cc1)c1ccccc1, the IC50 [9] was > 122 µM (inactive) and the IC50 [10] was > 122 µM (inactive).
For C[C@@H]1CCCCO[C@H](CN(C)Cc2ccc(Cl)c(Cl)c2)[C@@H](C)CN([C@@H](C)CO)C(=O)c2cc(NC(=O)Nc3ccccc3)ccc2O1, the AC50 (Paired box protein Pax-8) was 4.29 µM (active) and the AC50 [11] was 47.9 µM (active).
In the case of C[C@H]1CCCCO[C@@H](CN(C)C(=O)Nc2ccc(F)cc2)[C@@H](C)CN([C@@H](C)CO)C(=O)c2cc(NC(=O)C3CCCCC3)ccc2O1, the AC50 [12] is reported as 44.2 µM (active), the AC50 [13] is reported as 3.88 µM (active) and the AC50 [14] is reported as 66 µM (active).
For N#Cc1cc2ccc(OCCCCC(=O)O)cc2oc1=O, the IC50 [15] was > 100 µM (inactive) and the IC50 [16] was > 100 µM (inactive).
With Cc1cccc2c(NCCc3ccc(O)c(O)c3)ccnc12 the IC50 [17] was 4.7 µM (active).
In the case of N#Cc1ccc(C(=O)N2CCN(S(=O)(=O)c3ccccc3)CC2)cc1, the AC50 (Caspase-6) is reported as > 70 µM (inactive).
